Laboratory results as given in US11964938B2, “3-phenyl-4-hexynoic acid derivatives as GPR40 agonists” (CELON PHARMA S.A., priority 2018, dated 2024).
Counter-ions that a name gives are not always drawn.

Experiments:
MRP4 = target: T1, MRP4 (Homo sapiens, UniProt O15439); experiment: Vesicular transport inhibition assay, MRP4; assay type: biochemical; settings: membrane vesicles from HEK293 cells
T1 construct: host or cells: HEK293 (membrane vesicles)
T1 sequence (O15439 1-1325): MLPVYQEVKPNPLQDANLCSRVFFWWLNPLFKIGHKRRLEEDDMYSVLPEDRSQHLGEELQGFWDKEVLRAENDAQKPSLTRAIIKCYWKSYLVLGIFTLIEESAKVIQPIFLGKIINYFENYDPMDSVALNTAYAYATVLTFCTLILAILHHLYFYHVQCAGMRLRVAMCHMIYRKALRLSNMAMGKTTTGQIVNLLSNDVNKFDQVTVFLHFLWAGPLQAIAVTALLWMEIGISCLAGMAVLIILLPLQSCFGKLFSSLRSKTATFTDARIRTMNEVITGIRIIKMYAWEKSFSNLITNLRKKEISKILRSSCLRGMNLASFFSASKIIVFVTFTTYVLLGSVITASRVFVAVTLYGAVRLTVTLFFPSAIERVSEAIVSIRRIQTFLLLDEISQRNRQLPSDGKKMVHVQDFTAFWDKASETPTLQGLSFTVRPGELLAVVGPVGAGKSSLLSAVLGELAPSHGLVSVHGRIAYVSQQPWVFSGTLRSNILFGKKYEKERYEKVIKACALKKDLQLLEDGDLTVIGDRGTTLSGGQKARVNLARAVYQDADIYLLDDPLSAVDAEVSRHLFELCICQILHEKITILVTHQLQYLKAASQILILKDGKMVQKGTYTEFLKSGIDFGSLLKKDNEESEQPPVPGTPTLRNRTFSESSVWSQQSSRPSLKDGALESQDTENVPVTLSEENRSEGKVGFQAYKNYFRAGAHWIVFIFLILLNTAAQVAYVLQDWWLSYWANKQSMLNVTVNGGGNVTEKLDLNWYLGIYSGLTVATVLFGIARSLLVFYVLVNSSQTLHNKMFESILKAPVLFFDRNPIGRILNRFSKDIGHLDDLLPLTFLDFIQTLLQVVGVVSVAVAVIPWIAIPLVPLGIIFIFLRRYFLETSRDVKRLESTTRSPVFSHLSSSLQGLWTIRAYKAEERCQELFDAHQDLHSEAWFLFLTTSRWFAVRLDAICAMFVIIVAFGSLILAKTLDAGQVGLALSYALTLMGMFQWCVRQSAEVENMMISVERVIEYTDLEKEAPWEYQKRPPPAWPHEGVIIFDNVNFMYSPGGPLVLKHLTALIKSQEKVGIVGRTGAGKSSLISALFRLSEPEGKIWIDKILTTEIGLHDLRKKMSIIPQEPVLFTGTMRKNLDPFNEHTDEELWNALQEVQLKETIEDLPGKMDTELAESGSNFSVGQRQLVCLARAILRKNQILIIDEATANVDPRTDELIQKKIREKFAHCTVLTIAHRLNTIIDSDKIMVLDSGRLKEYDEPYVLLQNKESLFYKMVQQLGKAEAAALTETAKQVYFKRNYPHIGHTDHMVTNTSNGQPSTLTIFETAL
Experimental: (§1) Experiment B4: Bile Acid Transporters Inhibition in the Liver. […] The compound was tested on a panel of 10 transporters: BSEP, MRP2, MRP3, MRP4 in a vesicular transport inhibition assay and NTCP, OAT1, OAT2v1, OATP1A2, OATP1B1, OATP1B3 in an uptake transporter inhibition assays. Vesicular transport inhibition assay was performed on membrane vesicles isolated from mammal HEK293 cells overexpressing human ABC transporters. Tested compound were incubated with vesicles and substrates for respective tested transporters. Incubation was performed in the presence of 4 mM ATP or AMP in order to differentiate between uptake by a transporter and passive diffusion into vesicles. In the case of MRP2 and MRP3, reactions were performed in the presence of 2 mM glutathione. Tested compounds were added to the reaction mixture dissolved in 0.75 μl of a solvent (1% of final incubation volume). Reaction mixtures were preincubated for 15 minutes at 37±1° C. Reactions were started by the addition of 25 μl of 12 mM MgATP (or 12 mM AMP) in test buffer, as a background control, separately preincubated.

BSEP = target: T2, BSEP (Homo sapiens, UniProt O95342); experiment: Vesicular transport inhibition assay, BSEP; assay type: biochemical; settings: membrane vesicles from HEK293 cells
T2 construct: host or cells: HEK293 (membrane vesicles)
Experimental: as §1

OATP1B1 = target: T3, OATP1B1 (Homo sapiens, UniProt Q9Y6L6); experiment: Uptake transporter inhibition assay, OATP1B1; assay type: cell-based; settings: HEK293 cells overexpressing transporter
T3 construct: host or cells: HEK293
T3 sequence (Q9Y6L6 1-691): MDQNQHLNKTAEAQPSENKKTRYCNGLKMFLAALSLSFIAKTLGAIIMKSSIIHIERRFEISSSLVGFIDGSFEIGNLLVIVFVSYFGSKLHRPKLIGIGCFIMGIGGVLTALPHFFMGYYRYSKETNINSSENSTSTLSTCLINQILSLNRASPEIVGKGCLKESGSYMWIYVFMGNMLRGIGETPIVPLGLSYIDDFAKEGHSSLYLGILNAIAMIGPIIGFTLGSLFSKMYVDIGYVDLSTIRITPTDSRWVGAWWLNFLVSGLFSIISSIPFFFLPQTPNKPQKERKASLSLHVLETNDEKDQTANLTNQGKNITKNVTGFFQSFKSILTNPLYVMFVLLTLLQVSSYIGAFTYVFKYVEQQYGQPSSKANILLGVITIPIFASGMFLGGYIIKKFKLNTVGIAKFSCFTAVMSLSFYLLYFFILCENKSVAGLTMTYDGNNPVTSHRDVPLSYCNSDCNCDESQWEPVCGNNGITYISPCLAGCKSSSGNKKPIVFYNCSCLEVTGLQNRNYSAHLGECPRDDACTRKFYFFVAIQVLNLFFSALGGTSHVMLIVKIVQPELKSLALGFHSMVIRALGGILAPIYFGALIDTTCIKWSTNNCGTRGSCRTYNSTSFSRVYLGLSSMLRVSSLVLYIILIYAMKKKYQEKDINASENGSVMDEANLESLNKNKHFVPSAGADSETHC
Experimental: Experiment B4: Bile Acid Transporters Inhibition in the Liver.
The compound was tested on a panel of 10 transporters: BSEP, MRP2, MRP3, MRP4 in a vesicular transport inhibition assay and NTCP, OAT1, OAT2v1, OATP1A2, OATP1B1, OATP1B3 in an uptake transporter inhibition assays.
Transporter uptake inhibition test was performed on mammal HEK293 cells overexpressing of a respective transporter. Cells were cultured at 37±1° C. and seeded on 96-well tissue culture plate at 1×10^5/well. Substrate was removed prior to experiment and cells were washed twice with 100 μl of respective buffer (HK pH 7.4 for OATP1B1 and HBSS pH 7.4 for NTCP, OAT1, OAT2v1, OATP1A2, and OATP1B3). Uptake studies were performed at 37±1° C. in 50 μl of respective buffer containing radioactively tagged substrate and tested compound or solvent.
After experiment cells were washed twice with 100 μl of ice-cold respective buffer and lysed with 50 μl of 0.1M NaOH. Transport of radioactively tagged substrate was determined by scintillation counter measurement.

T2 sequence (O95342 whole entry): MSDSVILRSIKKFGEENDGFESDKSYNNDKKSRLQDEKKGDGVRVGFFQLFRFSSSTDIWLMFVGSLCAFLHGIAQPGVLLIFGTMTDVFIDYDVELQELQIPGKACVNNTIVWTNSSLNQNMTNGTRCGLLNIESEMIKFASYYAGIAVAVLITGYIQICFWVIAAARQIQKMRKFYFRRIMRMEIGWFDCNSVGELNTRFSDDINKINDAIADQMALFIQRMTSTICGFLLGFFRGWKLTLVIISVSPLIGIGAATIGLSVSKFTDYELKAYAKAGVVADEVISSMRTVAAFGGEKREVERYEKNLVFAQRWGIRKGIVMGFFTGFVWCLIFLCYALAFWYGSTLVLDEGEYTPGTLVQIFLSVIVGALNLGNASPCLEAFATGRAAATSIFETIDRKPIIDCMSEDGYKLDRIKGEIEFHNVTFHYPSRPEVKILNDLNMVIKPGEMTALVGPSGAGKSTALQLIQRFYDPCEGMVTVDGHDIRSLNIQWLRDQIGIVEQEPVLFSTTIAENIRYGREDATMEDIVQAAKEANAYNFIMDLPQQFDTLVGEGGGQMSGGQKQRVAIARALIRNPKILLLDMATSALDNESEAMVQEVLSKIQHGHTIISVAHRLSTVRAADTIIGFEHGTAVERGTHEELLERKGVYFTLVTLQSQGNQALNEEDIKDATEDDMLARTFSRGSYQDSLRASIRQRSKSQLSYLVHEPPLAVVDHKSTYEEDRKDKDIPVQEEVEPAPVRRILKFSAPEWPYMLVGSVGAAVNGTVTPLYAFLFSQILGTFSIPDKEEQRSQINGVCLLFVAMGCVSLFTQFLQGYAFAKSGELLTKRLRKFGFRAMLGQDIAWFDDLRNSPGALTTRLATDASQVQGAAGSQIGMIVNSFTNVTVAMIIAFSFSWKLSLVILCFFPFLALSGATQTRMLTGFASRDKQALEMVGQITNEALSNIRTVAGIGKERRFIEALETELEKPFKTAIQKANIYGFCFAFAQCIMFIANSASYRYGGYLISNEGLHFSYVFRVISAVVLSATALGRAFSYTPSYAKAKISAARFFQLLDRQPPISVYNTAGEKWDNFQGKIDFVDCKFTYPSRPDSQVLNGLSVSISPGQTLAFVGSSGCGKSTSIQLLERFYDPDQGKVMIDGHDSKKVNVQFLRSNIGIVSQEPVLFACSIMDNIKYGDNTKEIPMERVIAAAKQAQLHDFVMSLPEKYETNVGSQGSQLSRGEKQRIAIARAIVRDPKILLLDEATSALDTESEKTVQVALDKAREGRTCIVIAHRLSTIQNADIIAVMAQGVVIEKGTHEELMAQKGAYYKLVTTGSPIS

Structure (SMILES)	IC50 (MRP4)	IC50 (BSEP)	IC50 (OATP1B1)
CC#C[C@@H](CC(=O)O)c1ccc(OCC(C)=C(C)C)cc1 [Example S1, (3S)-3-{4-[(2,3-dimethylbut-2-en-1-yl)oxy]phenyl}hex-4-ynoic acid calcium salt]	131 µM	> 100 µM	17.9 µM
Cc1cc(OCCCS(C)(=O)=O)cc(C)c1-c1cccc(COc2ccc3c(c2)OC[C@H]3CC(=O)O)c1 [Example R1, 2[(3S)-6-({3-[4-(3-methanesulfonylpropoxy)-2,6-dimethylphenyl]-phenyl}methoxy)-2,3-dihydro-1-benzofuran-3-yl]acetic acid, reference compound]	6.9 µM	30 µM	0.49 µM
